According to patent publication US10752640B2, “Compounds active towards bromodomains” (NUEVOLUTION A/S, priority 2014, dated 2020):
pIC50: −log10 of the molar value.

These compounds were tested against BRD4 protein (Homo sapiens, UniProt O60885) (assay: FRET assay, half maximal inhibitory concentration (IC50)). Conditions: BRD4 protein 50 nM, Biotin-H4KAc4 peptide 12.5 nM; A Further List of Classification.
Type: binding
Summary of the method: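 Acetylated histone H4 peptide binding (biotin-H4KAc4, 12.5 nM final) to BRD4 (50 nM final) detected by TR-FRET between streptavidin cryptate (2.4 nM) and GST-XL665 antibody (10 nM) in KF/BSA. Buffer: HEPES pH 7.5, NaCl, CHAPS. Compound dilutions from 50 μM in 12.5% DMSO were preincubated with protein for 30 min. Variable-slope IC50.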

pIC50 | SMILES
< 5.00 | Cc1cc(O)nc2ccc(NC(=O)c3cc(CN4CCOCC4)cnc3N3CCC(CO)C3)cc12 (stereo not shown) [S118, 2-[3-(hydroxymethyl)pyrrolidin-1-yl]-N-(2-hydroxy-4-methyl-6-quinolyl)-5-(morpholinomethyl)pyridine-3-carboxamide]
< 5.00 | Cc1cc(O)nc2ccc(NC(=O)c3cc(CN4CCOCC4)cnc3N3CCOC(CO)C3)cc12 (stereo not shown) [S114, 2-[2-(hydroxymethyl)morpholin-4-yl]-N-(2-hydroxy-4-methyl-6-quinolyl)-5-(morpholinomethyl)pyridine-3-carboxamide]
> 6.70 | Cc1cc(O)nc2ccc(NC(=O)c3cc(CN4CCC(O)C4)ccc3N3CCCC3)cc12 (stereo not shown) [S84, N-(2-hydroxy-4-methyl-6-quinolyl)-5-[(3-hydroxypyrrolidin-1-yl)methyl]-2-pyrrolidin-1-yl-benzamide]
< 5.00 | CN1C(=O)CCc2cc(NC(=O)c3ccccc3N3CCN(c4cnccn4)CC3)ccc21 [S8, N-(1-methyl-2-oxo-3,4-dihydroquinolin-6-yl)-2-(4-pyrazin-2-ylpiperazin-1-yl)benzamide]
5.00 to 6.00 | CN1C(=O)COc2cc(NC(=O)c3cc([N+](=O)[O-])ccc3N3CCCC3)ccc21 [S77, N-(4-methyl-3-oxo-1,4-benzoxazin-7-yl)-5-nitro-2-pyrrolidin-1-yl-benzamide]
5.00 to 6.00 | Cc1cc(O)nc2ccc(NC(=O)c3cc(S(=O)(=O)N(C)C)ccc3N3CCCC3C(C)(C)O)cc12 (stereo not shown) [S57, 5-(dimethylsulfamoyl)-2-[2-(1-hydroxy-1-methyl-ethyl)pyrrolidin-1-yl]-N-(2-hydroxy-4-methyl-6-quinolyl)benzamide]
> 6.70 | COCC1CCCN(Cc2ccc(N3CCCC3)c(C(=O)Nc3ccc4nc(O)cc(C)c4c3)c2)C1 (stereo not shown) [S91, N-(2-hydroxy-4-methyl-6-quinolyl)-5-[[3-(methoxymethyl)-1-piperidyl]methyl]-2-pyrrolidin-1-yl-benzamide]
> 6.70 | Cc1cc(O)nc2ccc(NC(=O)c3cc(CN(C)CCO)ccc3N3CCCC3)cc12 [S81, 5-[[2-hydroxyethyl(methyl)amino]methyl]-N-(2-hydroxy-4-methyl-6-quinolyl)-2-pyrrolidin-1-yl-benzamide]
< 5.00 | Cc1cc(O)nc2ccc(NC(=O)c3cc(S(=O)(=O)N(C)C)ccc3F)cc12 [S33, 5-(dimethylsulfamoyl)-2-fluoro-N-(2-hydroxy-4-methyl-6-quinolyl)benzamide]
> 6.70 | Cc1cc(O)nc2ccc(NC(=O)c3cc(CN4CCCN(C)CC4)ccc3N3CCCC3)cc12 [S87, N-(2-hydroxy-4-methyl-6-quinolyl)-5-[(4-methyl-1,4-diazepan-1-yl)methyl]-2-pyrrolidin-1-yl-benzamide]
> 6.70 | Cc1cc(O)nc2ccc(NC(=O)c3cc([N+](=O)[O-])ccc3N3CCOCC3)cc12 [S17, N-(2-hydroxy-4-methyl-6-quinolyl)-2-morpholino-5-nitro-benzamide]
5.00 to 6.00 | Cc1cc(O)nc2ccc(NC(=O)c3cc(CN4CCOCC4)cnc3N3CCC(N4CCCC4)C3)cc12 (stereo not shown) [S107, N-(2-hydroxy-4-methyl-6-quinolyl)-5-(morpholinomethyl)-2-(3-pyrrolidin-1-ylpyrrolidin-1-yl)pyridine-3-carboxamide]
> 6.70 | Cc1cc(O)nc2ccc(NC(=O)c3cc(S(=O)(=O)N(C)C)ccc3N3CCCC3CN(C)C)cc12 (stereo not shown) [S56, 2-[2-(dimethylaminomethyl)pyrrolidin-1-yl]-5-(dimethylsulfamoyl)-N-(2-hydroxy-4-methyl-6-quinolyl)benzamide]
> 6.70 | Cc1cc(O)nc2ccc(NC(=O)c3cc(S(=O)(=O)N(C)C)ccc3N3CCCC3c3cc[nH]n3)cc12 (stereo not shown) [S59, 5-(dimethylsulfamoyl)-N-(2-hydroxy-4-methyl-6-quinolyl)-2-[2-(1H-pyrazol-3-yl)pyrrolidin-1-yl]benzamide]
< 5.00 | Cc1cc(O)nc2ccc(NC(=O)c3cccc(N4CCCC4)c3)cc12 [S29, N-(2-hydroxy-4-methyl-6-quinolyl)-3-pyrrolidin-1-yl-benzamide, reference compound]

Same assay, conditions: BRD4 protein 50 nM, Biotin-H4KAc4 peptide 12.5 nM; List of Classification

pIC50 | SMILES
> 6.70 | Cc1cc(O)nc2ccc(NC(=O)c3cc(S(=O)(=O)N(C)C)ccc3N3CCCC3)cc12 [Compound-72, 5-(dimethylsulfamoyl)-N-(2-hydroxy-4-methyl-6-quinolyl)-2-pyrrolidin-1-yl-benzamide]
6.30 to 6.70 | Cc1cc(O)nc2ccc(NC(=O)c3cc(C(=O)N4CCOCC4)ccc3N3CCOCC3)cc12 [Compound-11, N-(2-hydroxy-4-methylquinolin-6-yl)-5-(morpholine-4-carbonyl)-2-morpholinobenzamide]
> 6.70 | Cc1cc(O)nc2ccc(NC(=O)c3cc(-c4cnoc4)ccc3N3CCOCC3)cc12 [Compound-151, N-(2-hydroxy-4-methyl-6-quinolyl)-5-isoxazol-4-yl-2-morpholino-benzamide]
> 6.70 | COc1cc(NC(=O)c2cc(-c3cnn(C)c3)cnc2N2CCOCC2)cc2c(C)cc(O)nc12 [Compound-169, N-(2-hydroxy-8-methoxy-4-methylquinolin-6-yl)-5-(1-methyl-1H-pyrazol-4-yl)-2-morpholinonicotinamide]
> 6.70 | COc1cc2nc(O)cc(C)c2cc1NC(=O)c1cc(-c2cnn(C)c2)ccc1N1CCOCC1 [Compound-159, N-(2-hydroxy-7-methoxy-4-methyl-6-quinolyl)-5-(1-methylpyrazol-4-yl)-2-morpholino-benzamide]
6.30 to 6.70 | Cc1cc(-c2cnc(N3CCOCC3)c(C(=O)Nc3cc4c(C)cc(O)nc4cc3C)c2)on1 [Compound-200, N-(2-hydroxy-4,7-dimethylquinolin-6-yl)-5-(3-methylisoxazol-5-yl)-2-morpholinonicotinamide]
5.00 to 6.00 | Cc1cc(O)nc2ccc(NC(=O)c3cc([N+](=O)[O-])cnc3N3CCCC3)cc12 [Compound-23, N-(2-hydroxy-4-methyl-6-quinolyl)-5-nitro-2-pyrrolidin-1-yl-pyridine-3-carboxamide]
< 5.00 | Cc1cc2nc(O)cc(C)c2cc1NC(=O)c1cc(-c2nnnn2C)cnc1N1CCOCC1 [Compound-196, N-(2-hydroxy-4,7-dimethylquinolin-6-yl)-5-(1-methyl-1H-tetrazol-5-yl)-2-morpholinonicotinamide]
6.00 to 6.30 | Cc1cc2nc(O)cc(C)c2cc1NC(=O)c1cccnc1N1CCC(F)C1 (stereo not shown) [Compound-126, 2-(3-fluoropyrrolidin-1-yl)-N-(2-hydroxy-4,7-dimethyl-6-quinolyl)pyridine-3-carboxamide]
> 6.70 | Cc1cc(O)nc2ccc(NC(=O)c3cc(C(C)O)ncc3N3CCOCC3)cc12 (stereo not shown) [Compound-208, N-(2-hydroxy-4-methylquinolin-6-yl)-2-(1-hydroxyethyl)-5-morpholinoisonicotinamide]
6.00 to 6.30 | Cc1cc2nc(O)cc(C)c2cc1NC(=O)c1cccnc1N1CCOCC1 [Compound-125, N-(2-hydroxy-4,7-dimethyl-6-quinolyl)-2-morpholino-pyridine-3-carboxamide]
6.00 to 6.30 | Cc1cc(O)nc2ccc(NC(=O)c3cccnc3N3CCn4ccnc4C3)cc12 [Compound-147, 2-(6,8-dihydro-5H-imidazo[1,2-a]pyrazin-7-yl)-N-(2-hydroxy-4-methyl-6-quinolyl)pyridine-3-carboxamide]
> 6.70 | CC(=O)c1cc(C(=O)Nc2ccc3nc(O)cc(C)c3c2)c(N2CCCC2)cn1 [Compound-42, 2-acetyl-N-(2-hydroxy-4-methylquinolin-6-yl)-5 (pyrrolidin-1-yl)isonicotinamide]
> 6.70 | Cc1noc(C)c1-c1ccc(N2CCOCC2)c(C(=O)Nc2ccc3nc(O)cc(C)c3c2)c1 [Compound-152, 5-(3,5-dimethylisoxazol-4-yl)-N-(2-hydroxy-4-methyl-6-quinolyl)-2-morpholino-benzamide]
> 6.70 | Cc1cc(O)nc2ccc(NC(=O)c3cc(C(C)O)ncc3N3CCC(F)C3)cc12 (stereo not shown) [Compound-210, 5-(3-fluoropyrrolidin-1-yl)-N-(2-hydroxy-4-methylquinolin-6-yl)-2-(1-hydroxyethyl) isonicotinamide]
> 6.70 | Cc1cc(O)nc2ccc(NC(=O)c3cc(C(C)O)ccc3N3CCCC3)cc12 (stereo not shown) [Compound-46, N-(2-hydroxy-4-methylquinolin-6-yl)-5-(1-hydroxyethyl)-2-(pyrrolidin-1-yl) benzamide]
> 6.70 | Cc1cc(O)nc2ccc(NC(=O)c3cc(-c4cnn(C)c4)ccc3N3CCOCC3)cc12 [Compound-166, N-(2-hydroxy-4-methyl-6-quinolyl)-5-(1-methylpyrazol-4-yl)-2-morpholino-benzamide]
5.00 to 6.00 | Cc1cc(O)nc2ccc(NC(=O)c3cc(CN4CCOCC4)ccc3N3CCCC3c3cc[nH]n3)cc12 (stereo not shown) [Compound-27, 2-(2-(1H-pyrazol-3-yl)pyrrolidin-1-yl)-N-(2-hydroxy-4-methylquinolin-6-yl)-5-(morpholinomethyl) benzamide]
> 6.70 | CC(=O)N1CCN(Cc2ccc(N3CCCC3)c(C(=O)Nc3ccc4nc(O)cc(C)c4c3)c2)CC1 [Compound-4, 5-[(4-acetylpiperazin-1-yl)methyl]-N-(2-hydroxy-4-methyl-6-quinolyl)-2-pyrrolidin-1-yl-benzamide]
> 6.70 | Cc1cc(O)nc2ccc(NC(=O)c3cc4c(ccn4CC(N)=O)cc3N3CCCC3)cc12 [Compound-86, 1-(2-amino-2-oxo-ethyl)-N-(2-hydroxy-4-methyl-6-quinolyl)-5-pyrrolidin-1-yl-indole-6-carboxamide]
> 6.70 | Cc1cc(O)nc2c(C)cc(NC(=O)c3cccnc3N3CCOCC3)cc12 [Compound-136, N-(2-hydroxy-4,8-dimethyl-6-quinolyl)-2-morpholino-pyridine-3-carboxamide]
> 6.70 | Cc1cc(O)nc2ccc(NC(=O)c3cc(CN4CCOCC4)cnc3N3CCOCC3)cc12 [Compound-90, N-(2-hydroxy-4-methyl-6-quinolyl)-2-morpholino-5-(morpholinomethyl)pyridine-3-carboxamide]
